Measured values: US11211249B2, “Herbal extracts and flavor systems for oral products and methods of making the same” (Sensient Flavors LLC, priority 2008, dated 2021)

Test: Flavor release from chewing gum, mechanical mastication device with artificial saliva
Type: physicochemical
Conditions: chewing gum with 2% flavor system
Protocol: To test if adequate flavor is released from chewing gum, the chewing gums made in Example 5 were tested using a mechanical instrument to simulate human mastication of chewing gum, which can be found in Kleber et al. A mastication device designed for the evaluation of chewing gum is set forth in Journal of Dental Research, 1981, 109-114, which is incorporated herein in its entirety. Artificial saliva (15 ml) was placed in the reservoir, and the thermostatically controlled heating element was turned on to maintain the saliva and gum at body temperature for proper chewing consistency. One stick of test chewing gum (approximately 3 grams with 2% flavor system added) was placed in the warmed chamber and the artificial saliva was exposed to the chewing gum for 1 minute under chewing simulation conditions. All the artificial saliva (15 ml) was removed as quickly as possible with a pipette, delivered immediately into a glass bottle and sealed. The saliva was replaced with a fresh 15 ml aliquot, the chewing conditions restarted and the gum samples were treated for another minute. […] Two markers, Marker 1, thymol, and Marker 2, menthol, were selected to monitor flavor release based on quantity and antimicrobial efficiency. […] It was estimated that enough flavor was released during the first 15-20 minutes to have antimicrobial activity based on the quantity released and the MIC results.

Cc1ccc(C(C)C)c(O)c1 [Marker 1, thymol]
release course over time of chewing: released constantly for the first 10 minutes and afterward decreases
